# Measured values reported in patent US20260102383A1, “LPAR1 Inhibitors” (AbbVie Inc., priority 2024, published 2026).
# Marks after values point to notes of the source that are not given here.
# Assays:
# [1] = system: pro-fibrotic and pro-inflammatory genes in bleomycin-induced skin fibrosis; test: Bleomycin-evoked skin fibrosis model, skin gene expression (TaqMan); assay type: in vivo, C57B6J mice; conditions: for % Inhibition by Concentration vs Bleo (mean ± SEM), Col1a1 gene / % Inhibition by Concentration vs Bleo (mean ± SEM), Col6a3 gene / % Inhibition by Concentration vs Bleo (mean ± SEM), Col8a1 gene / % Inhibition by Concentration vs Bleo (mean ± SEM), Fn1 gene / % Inhibition by Concentration vs Bleo (mean ± SEM), Lpar1 gene / % Inhibition by Concentration vs Bleo (mean ± SEM), Mmp2 gene / % Inhibition by Concentration vs Bleo (mean ± SEM), Serpine1 gene / % Inhibition by Concentration vs Bleo (mean ± SEM), Timp1 gene: skin
# Description: (§1) The activity of Compound 15 was measured using a bleomycin-evoked skin fibrosis model.
# (§2) For the bleomycin model of skin fibrosis, C57B6J mice were purchased at 9 to 11 weeks of age. Upon arriving, mice were group-housed 10 per cage in individually ventilated cages, with a normal 12:12 hour light: dark cycle. Animals were acclimated to the animal facilities for a period of at least 10 days prior to initiation of bleomycin model studies; mouse ears were tagged for animal identification. At the initiation of bleomycin administration, 93M diet gel was also added to the cages of all mice and available ad libitum for the duration of the experiment. For all animals studied, food and water were available ad libitum.
# (§3) The upper back region of the mouse was shaved and two circles (˜1 cm diameter) were drawn onto the skin to identify the location for bleomycin injection. To induce skin fibrosis, mice received subcutaneous injections of bleomycin (10 units/kg) or phosphate-buffered saline (PBS) during Week 1 (D0-D4) and week 2 (D7-D10) at a volume of 100 μL into the two marked injection sites (for a total volume of 200 μL). […] For pharmacological assessment, mice received either vehicle or 1×, 3×, or 10×mg/kg of a dose of Compound 15 orally, twice daily, from Day 10 to 28. On Day 28, animals were humanely euthanized, and plasma and 2 to 8 mm back skin biopsy punches collected. The ALK5 inhibitor, SB-525334 was also included in the study as a positive control. SB-525334 was administered at a dose of 4.5×mg/kg following the same dosing regimen described for Compound 15. All treatments were administered at a volume of 1×mL/kg body weight.
# For tissue gene expression measurement, an 8-mm skin biopsy punch was homogenized in 300 μL RLT buffer containing β-mercaptoethanol (1:100) and using a QIAgen TissueLyser II. RNA was then extracted using the RNeasy Fibrous Mini Kit and purified RNA analyzed for gene expression using TaqMan Kits (Thermofisher) with indicated probes (Table B). Expression data for each sample were normalized to the housekeeping gene (Rplp0) and expressed as fold change relative to the sham treated mice.
# (§4) Data from gene and protein measurements were analyzed using GraphPad Prism 7 (GraphPad Software, San Diego, CA, USA). Group comparisons were conducted by a one-way ANOVA, followed by Dunnett's multiple comparisons test.
# (§5) In the subcutaneous bleomycin-induced skin fibrosis mouse model, Compound 15 was assessed after the skin fibrosis was established during Days 1 through 10. Compound 15 was administered twice daily by oral gavage from Day 10 through Day 28 as described in Table C.
# [2] = system: disease-relevant skin proteins in bleomycin-induced skin fibrosis; test: Bleomycin-evoked skin fibrosis model, skin protein levels (ELISA, MSD U-plex); assay type: in vivo, C57B6J mice
# Description: as §1, §2, §3
# For protein measurement, ½ of an 8-mm biopsy punch was homogenized in 500 μL DI water containing extraction buffer and cell extraction enhancer solution, using a Bead Ruptor 24 with CryoCool (OMNI). ELISA assays were performed on the lysates to measure Fibronectin and Procollagen1a1 and a multiplexed MSD U-plex assay was performed to measure MCP-1 and CXCL1. All kits were run according to the manufacturers' instructions. Skin protein levels were normalized to total protein in the lysate and expressed per milligram of total protein.
# as §4, §5
# [3] = biological target: T1, human LPAR1 (Homo sapiens, UniProt Q92633); test: Arrestin assay (Arrestin Reporter EDG2-bla U2OS), inhibition of LPA-stimulated signal; assay type: cell-based; conditions: TangoEDG2-bla U2OS cells expressing human LPAR1; 0.25 μM LPA; read-out: Arrestin Reporter EDG2-bla U2OS Human IC50
# T1 construct: host or cells: TangoEDG2-bla U2OS cells
# How it was run: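 IC50 comes from a variable-slope 4-parameter fit of % inhibition, calculated from the beta-lactamase FRET ratio (emission 460/530 nm, excitation 409 nm, 2 h development at RT). Compounds, 10 μM down to 0.00006 μM in 3-fold steps, were given 1 h before 0.25 μM final LPA for 3 h in TangoEDG2-bla U2OS cells.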
# [4] = 1x mg/kg PO BID Day 10-28, vs bleomycin/vehicle
# [5] = 3x mg/kg PO BID Day 10-28, vs bleomycin/vehicle
# [6] = 10x mg/kg PO BID Day 10-28, vs bleomycin/vehicle
# [7] = 4.5x mg/kg PO BID Day 10-28, vs bleomycin/vehicle
# T1 sequence (Q92633 whole entry): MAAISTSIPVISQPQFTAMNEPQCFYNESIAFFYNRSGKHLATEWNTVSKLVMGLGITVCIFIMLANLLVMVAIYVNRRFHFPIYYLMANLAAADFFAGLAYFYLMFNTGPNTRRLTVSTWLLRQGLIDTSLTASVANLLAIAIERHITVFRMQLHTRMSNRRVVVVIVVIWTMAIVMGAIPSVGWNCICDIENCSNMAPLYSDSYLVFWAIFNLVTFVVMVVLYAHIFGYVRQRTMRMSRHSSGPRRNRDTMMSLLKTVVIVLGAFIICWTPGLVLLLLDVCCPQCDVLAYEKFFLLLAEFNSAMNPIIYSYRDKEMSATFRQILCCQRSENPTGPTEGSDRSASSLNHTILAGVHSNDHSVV
smiles,measurement,setting,value
"CC(C)c1ccnn1C1(C(=O)Nc2ccc(Cl)cc2OC(F)F)CCN(C[C@H](C(=O)O)C2CCOCC2)CC1 (single isomer, unassigned) [Compound 15]",key measures of skin inflammation and fibrosis,"[1]; mice, 1×, 3×, and 10×mg/kg",significantly reduced
same,"% Inhibition by Concentration vs Bleo (mean ± SEM), Col1a1 gene",[1]; 1x mg/kg PO BID Day 10-28,58 ± 12 %
same,"% Inhibition by Concentration vs Bleo (mean ± SEM), Col6a3 gene",[1]; 1x mg/kg PO BID Day 10-28,62 ± 24%
same,"% Inhibition by Concentration vs Bleo (mean ± SEM), Col8a1 gene",[1]; 1x mg/kg PO BID Day 10-28,16 ± 23%
same,"% Inhibition by Concentration vs Bleo (mean ± SEM), Fn1 gene",[1]; 1x mg/kg PO BID Day 10-28,31 ± 20%
same,"% Inhibition by Concentration vs Bleo (mean ± SEM), Lpar1 gene",[1]; 1x mg/kg PO BID Day 10-28,54 ± 24%
same,"% Inhibition by Concentration vs Bleo (mean ± SEM), Mmp2 gene",[1]; 1x mg/kg PO BID Day 10-28,39 ± 26%
same,"% Inhibition by Concentration vs Bleo (mean ± SEM), Serpine1 gene",[1]; 1x mg/kg PO BID Day 10-28,28 ± 31%
same,"% Inhibition by Concentration vs Bleo (mean ± SEM), Timp1 gene",[1]; 1x mg/kg PO BID Day 10-28,34 ± 21%
same,"% Inhibition by Concentration vs Bleo (mean ± SEM), Col1a1 gene",[1]; 3x mg/kg PO BID Day 10-28,77 ± 8 %
same,"% Inhibition by Concentration vs Bleo (mean ± SEM), Col6a3 gene",[1]; 3x mg/kg PO BID Day 10-28,108 ± 9 %
same,"% Inhibition by Concentration vs Bleo (mean ± SEM), Col8a1 gene",[1]; 3x mg/kg PO BID Day 10-28,43 ± 14%
same,"% Inhibition by Concentration vs Bleo (mean ± SEM), Fn1 gene",[1]; 3x mg/kg PO BID Day 10-28,76 ± 5 %
same,"% Inhibition by Concentration vs Bleo (mean ± SEM), Lpar1 gene",[1]; 3x mg/kg PO BID Day 10-28,97 ± 9 %
same,"% Inhibition by Concentration vs Bleo (mean ± SEM), Mmp2 gene",[1]; 3x mg/kg PO BID Day 10-28,81 ± 15 %
same,"% Inhibition by Concentration vs Bleo (mean ± SEM), Serpine1 gene",[1]; 3x mg/kg PO BID Day 10-28,88 ± 5 %
same,"% Inhibition by Concentration vs Bleo (mean ± SEM), Timp1 gene",[1]; 3x mg/kg PO BID Day 10-28,81 ± 7 %
same,"% Inhibition by Concentration vs Bleo (mean ± SEM), Col1a1 gene",[1]; 10x mg/kg PO BID Day 10-28,88 ± 6 %
same,"% Inhibition by Concentration vs Bleo (mean ± SEM), Col6a3 gene",[1]; 10x mg/kg PO BID Day 10-28,117 ± 8 %
same,"% Inhibition by Concentration vs Bleo (mean ± SEM), Col8a1 gene",[1]; 10x mg/kg PO BID Day 10-28,55 ± 11 %
same,"% Inhibition by Concentration vs Bleo (mean ± SEM), Fn1 gene",[1]; 10x mg/kg PO BID Day 10-28,75 ± 4 %
same,"% Inhibition by Concentration vs Bleo (mean ± SEM), Lpar1 gene",[1]; 10x mg/kg PO BID Day 10-28,95 ± 8 %
same,"% Inhibition by Concentration vs Bleo (mean ± SEM), Mmp2 gene",[1]; 10x mg/kg PO BID Day 10-28,55 ± 12%
same,"% Inhibition by Concentration vs Bleo (mean ± SEM), Serpine1 gene",[1]; 10x mg/kg PO BID Day 10-28,75 ± 9 %
same,"% Inhibition by Concentration vs Bleo (mean ± SEM), Timp1 gene",[1]; 10x mg/kg PO BID Day 10-28,84 ± 5 %
same,"% Inhibition by Drug Treatment, CXCL1 protein",[2]; [4],56** %
same,"% Inhibition by Drug Treatment, Fibronectin protein",[2]; [4],29%
same,"% Inhibition by Drug Treatment, MCP-1 protein",[2]; [4],50** %
same,"% Inhibition by Drug Treatment, Procollagen1a1 protein",[2]; [4],67*** %
same,"% Inhibition by Drug Treatment, CXCL1 protein",[2]; [5],71*** %
same,"% Inhibition by Drug Treatment, Fibronectin protein",[2]; [5],46*** %
same,"% Inhibition by Drug Treatment, MCP-1 protein",[2]; [5],59** %
same,"% Inhibition by Drug Treatment, Procollagen1a1 protein",[2]; [5],74*** %
same,"% Inhibition by Drug Treatment, CXCL1 protein",[2]; [6],76*** %
same,"% Inhibition by Drug Treatment, Fibronectin protein",[2]; [6],46*** %
same,"% Inhibition by Drug Treatment, MCP-1 protein",[2]; [6],73*** %
same,"% Inhibition by Drug Treatment, Procollagen1a1 protein",[2]; [6],77*** %
same,IC50,[3],0.0478 µM
"Cc1cccc(-c2[nH]c(C(C)(C)C)nc2-c2ccc3nccnc3c2)n1 [SB-525334, reference compound]","% Inhibition by Drug Treatment, CXCL1 protein",[2]; [7],49* %
same,"% Inhibition by Drug Treatment, Fibronectin protein",[2]; [7],82*** %
same,"% Inhibition by Drug Treatment, Procollagen1a1 protein",[2]; [7],69*** %
same,"% Inhibition by Drug Treatment, MCP-1 protein","[2]; PO BID Day 10-28, vs bleomycin/vehicle",17%
